Results taken from ChEMBL document CHEMBL1128108, “Synthesis and antitumor activity of camptothecin derivatives bearing five-membered heterocycle containing 10-substituents” (1995).
Converted amounts (≈) assume the structure as drawn.

Experiments:
Type in all cases: functional
[1] = tested on: L1210; assay: In vitro cytotoxicity assay was measured against human tumor L1210 cell line using camptothecin as a standard; settings: Mus musculus, read-out: TD50 (the source's name)
[2] = tested on: KB; assay: In vitro cytotoxicity assay was measured against human tumor KB cell line using camptothecin as a standard; settings: read-out: TD50 (the source's name)
[3] = tested on: L1210/Adr; assay: In vitro cytotoxicity assay was measured against human tumor L1210/Adr cell line using camptothecin as a standard; settings: Mus musculus, read-out: TD50 (the source's name)
[4] = tested on: MCF7; assay: In vitro cytotoxicity assay was measured against human tumor MCF-7 cell line using camptothecin as a standard; settings: read-out: TD50 (the source's name)
[5] = tested on: HCT-116; assay: In vitro cytotoxicity assay was measured against human tumor HCT116 cell line using camptothecin as a standard; settings: read-out: TD50 (the source's name)
[6] = tested on: HCT-116; assay: In vitro cytotoxicity assay was measured against human tumor HCT116 cell line; settings: read-out: TD50 (the source's name)
[7] = tested on: L1210; assay: In vitro cytotoxicity assay was measured against human tumor L1210 cell line; settings: Mus musculus, read-out: TD50 (the source's name)
[8] = tested on: L1210/Adr; assay: In vitro cytotoxicity assay was measured against human tumor L1210/Adr cell line; settings: Mus musculus, read-out: TD50 (the source's name)
[9] = tested on: MCF7; assay: In vitro cytotoxicity assay was measured against human tumor MCF-7 cell line; settings: read-out: TD50 (the source's name)
[10] = tested on: KB; assay: In vitro cytotoxicity assay was measured against human tumor KB cell line; settings: read-out: TD50 (the source's name)

Row | Structure (SMILES) | CC50 [1] [ng/mL] | CC50 [2] [ng/mL] | CC50 [3] [ng/mL] | CC50 [4] [ng/mL] | CC50 [5] [ng/mL] | CC50 [6] [ng/mL] | CC50 [7] [ng/mL] | CC50 [8] [ng/mL] | CC50 [9] [ng/mL] | CC50 [10] [ng/mL]
1 | COc1cccc2c1C(=O)c1c(O)c3c(c(O)c1C2=O)C[C@@](O)(C(=O)CO)C[C@@H]3O[C@H]1C[C@H](N)[C@H](O)[C@H](C)O1 [DOXORUBICIN] | 6 (≈ 11 nM) | 15 (≈ 27.6 nM) | 400 (≈ 736 nM) | 150 (≈ 276 nM) | 30 (≈ 55.2 nM) |  |  |  |  | 
2 | CCC1(O)C(=O)OCc2c1cc1n(c2=O)Cc2cc3cc(OCCNC(=O)c4cccs4)ccc3nc2-1 (stereo not given) | 0.1 (≈ 0.193 nM) | 0.5 (≈ 0.966 nM) | 1.5 (≈ 2.9 nM) | 68 (≈ 131 nM) | 0.04 (≈ 0.0773 nM) |  |  |  |  | 
3 | CCC1(O)C(=O)OCc2c1cc1n(c2=O)Cc2cc3cc(OCCNC(=O)C4CCCO4)ccc3nc2-1 (stereo not given) | 50 (≈ 98.9 nM) | 69 (≈ 136 nM) | 320 (≈ 633 nM) | 900 (≈ 1780 nM) | 55 (≈ 109 nM) |  |  |  |  | 
4 | CCC1(O)C(=O)OCc2c1cc1n(c2=O)Cc2cc3cc(OCCNC(=O)S(=O)(=O)c4cccs4)ccc3nc2-1 (stereo not given) | 0.085 (≈ 0.146 nM) | 0.5 (≈ 0.86 nM) | 0.1 (≈ 0.172 nM) | 100 (≈ 172 nM) | 0.01 (≈ 0.0172 nM) |  |  |  |  | 
5 | CCC1(O)C(=O)OCc2c1cc1n(c2=O)Cc2cc3cc(OCCNC(=O)c4cccn4C)ccc3nc2-1 (stereo not given) | 0.2 (≈ 0.389 nM) | 0.5 (≈ 0.972 nM) | 0.95 (≈ 1.85 nM) | 140 (≈ 272 nM) | 0.01 (≈ 0.0194 nM) |  |  |  |  | 
6 | CCC1(O)C(=O)OCc2c1cc1n(c2=O)Cc2cc3cc(OCCNC(=O)c4cccn4COC)ccc3nc2-1 (stereo not given) | 1 (≈ 1.84 nM) | 5 (≈ 9.18 nM) | 15 (≈ 27.5 nM) | 120 (≈ 220 nM) | 0.7 (≈ 1.29 nM) |  |  |  |  | 
7 | CCC1(O)C(=O)OCc2c1cc1n(c2=O)Cc2cc3cc(OCCNC(=O)/C=C/c4ccco4)ccc3nc2-1 (stereo not given) | 50 (≈ 94.8 nM) | 83 (≈ 157 nM) | 140 (≈ 265 nM) | 1000 (≈ 1900 nM) | 65 (≈ 123 nM) |  |  |  |  | 
8 | CCC1(O)C(=O)OCc2c1cc1n(c2=O)Cc2cc3cc(OCCNC(=O)c4ccc[nH]4)ccc3nc2-1 (stereo not given) | 0.1 (≈ 0.2 nM) | 0.4 (≈ 0.799 nM) | 1 (≈ 2 nM) | 260 (≈ 519 nM) | 0.01 (≈ 0.02 nM) |  |  |  |  | 
9 | CC[C@@]1(O)C(=O)OCc2c1cc1n(c2=O)Cc2cc3ccccc3nc2-1 [CAMPTOTHECIN] |  |  |  |  |  | 6 (≈ 17.2 nM) | 10 (≈ 28.7 nM) | 45 (≈ 129 nM) | 10 (≈ 28.7 nM) | 8 (≈ 23 nM)
10 | CCC1(O)C(=O)OCc2c1cc1n(c2=O)Cc2cc3cc(OCCNC(=O)c4ccco4)ccc3nc2-1 (stereo not given) | 4 (≈ 7.98 nM) | 5 (≈ 9.97 nM) | 15 (≈ 29.9 nM) | 820 (≈ 1640 nM) | 1 (≈ 1.99 nM) |  |  |  |  | 
11 | CCC1(O)C(=O)OCc2c1cc1n(c2=O)Cc2cc3cc(OCCNC(=O)c4nccn4COC)ccc3nc2-1 (stereo not given) | 2 (≈ 3.67 nM) | 7 (≈ 12.8 nM) | 10 (≈ 18.3 nM) | 750 (≈ 1370 nM) | 3 (≈ 5.5 nM) |  |  |  |  | 
